# Assay results published in ChEMBL document CHEMBL1201862, “PubChem BioAssay data set” (2004).
#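 Compound exposure: 48 hours, 5 concentrations, 96-well plates. Abbreviation: GI50, concentration required for 50% inhibition of growth.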 Calls of active or inactive are those of the source. No stated cut-off is given here; in the data, active = GI50 up to about 1.1 µM and inactive = higher.
# Assays:
# Assay in all cases: NCI-60 cell line screen, 48 h
# [1] = tested on: UACC-257
# [2] = tested on: UACC-62
# [3] = tested on: OVCAR-4
# [4] = tested on: COLO 205
# [5] = tested on: NCI-H23
# [6] = tested on: HCT-15
# [7] = tested on: EKVX
# [8] = tested on: NCI-H460
# [9] = tested on: SF-539
# [10] = tested on: RPMI-8226
# [11] = tested on: OVCAR-8
# [12] = tested on: HOP-62
# [13] = tested on: HT-29
# [14] = tested on: Malme-3M
# [15] = tested on: SNB-19
# [16] = tested on: A549
# [17] = tested on: HCT-116
# [18] = tested on: HL-60
Compound,GI50 [1],GI50 [2],GI50 [3],GI50 [4],GI50 [5],GI50 [6] [µM],GI50 [7],GI50 [8],GI50 [9],GI50 [10],GI50 [11],GI50 [12],GI50 [13],GI50 [14],GI50 [15],GI50 [16],GI50 [17],GI50 [18]
N=C(NC(=N)Nc1ccc(S(=O)(=O)Nc2cnc3ccccc3n2)cc1)Nc1ccc(Br)cc1,> 100 µM (inactive),> 100 µM (inactive),> 100 µM (inactive),> 100 µM (inactive),> 100 µM (inactive),> 100,> 100 µM (inactive),> 100 µM (inactive),> 100 µM (inactive),> 100 µM (inactive),> 100 µM (inactive),> 100 µM (inactive),> 100 µM (inactive),> 100 µM (inactive),> 100 µM (inactive),> 100 µM (inactive),,
O=C(CCC(=O)Nc1ccc(Cl)c(Cl)c1)CC(=O)c1ccc2ccccc2c1,> 100 µM (inactive),17.2 µM (inactive),> 100 µM (inactive),,> 100 µM (inactive),39.8,> 100 µM (inactive),> 100 µM (inactive),> 100 µM (inactive),39.8 µM (inactive),> 100 µM (inactive),> 100 µM (inactive),93.8 µM (inactive),> 100 µM (inactive),> 100 µM (inactive),> 100 µM (inactive),> 100 µM (inactive),> 100 µM (inactive)
CN1Cc2ccccc2C2(COc3ccccc3C2=O)C1 (stereo not given),62.7 µM (inactive),> 100 µM (inactive),92.3 µM (inactive),,> 100 µM (inactive),> 100,> 100 µM (inactive),> 100 µM (inactive),> 100 µM (inactive),68.7 µM (inactive),> 100 µM (inactive),> 100 µM (inactive),48 µM (inactive),> 100 µM (inactive),> 100 µM (inactive),> 100 µM (inactive),> 100 µM (inactive),48.9 µM (inactive)
C[C@]12CCc3nonc3C1CC[C@@H]1C2CC[C@]2(C)C(=O)CCC12 (stereo not given in full),> 10 µM (inactive),21.7 µM (inactive),> 100 µM (inactive),24.3 µM (inactive),30.8 µM (inactive),31.2,17.1 µM (inactive),> 100 µM (inactive),20.9 µM (inactive),17.5 µM (inactive),31.2 µM (inactive),> 100 µM (inactive),17.2 µM (inactive),24.9 µM (inactive),81.1 µM (inactive),25.8 µM (inactive),,15.5 µM (inactive)
COC(=O)C(=O)C(C(=O)C(=O)Nc1ccc([N+](=O)[O-])cc1[N+](=O)[O-])c1nc2ccc([N+](=O)[O-])cc2nc1O (stereo not given),> 100 µM (inactive),> 100 µM (inactive),> 100 µM (inactive),> 100 µM (inactive),> 100 µM (inactive),> 100,38.2 µM (inactive),> 100 µM (inactive),,> 100 µM (inactive),> 100 µM (inactive),> 100 µM (inactive),> 100 µM (inactive),> 100 µM (inactive),> 100 µM (inactive),> 100 µM (inactive),> 100 µM (inactive),> 100 µM (inactive)
O=C(CC(=O)N1N=C(c2ccccc2)C(/N=N/c2ccccc2Cl)C1=O)Nc1ccccc1Cl (stereo not given),48.4 µM (inactive),37.7 µM (inactive),20.7 µM (inactive),31.6 µM (inactive),39.8 µM (inactive),40.1,33.1 µM (inactive),56.2 µM (inactive),29.9 µM (inactive),17.3 µM (inactive),31.7 µM (inactive),33 µM (inactive),19.9 µM (inactive),,40.4 µM (inactive),21.4 µM (inactive),25.9 µM (inactive),13 µM (inactive)
O=C(c1ccccc1)c1c(CC(O)c2ccncc2)n(C(=O)c2ccccc2)c2ccccc12 (stereo not given),17.5 µM (inactive),16.5 µM (inactive),15.8 µM (inactive),17.9 µM (inactive),16 µM (inactive),17.4,,18.7 µM (inactive),17.9 µM (inactive),19.6 µM (inactive),30 µM (inactive),16.4 µM (inactive),17.3 µM (inactive),18 µM (inactive),21.8 µM (inactive),17.8 µM (inactive),15.6 µM (inactive),18.2 µM (inactive)
CC(C)(C)C(=O)OCC1CCC(n2cnc3c(=O)[nH]c(N)nc32)O1 (stereo not given),> 100 µM (inactive),> 100 µM (inactive),> 100 µM (inactive),> 100 µM (inactive),> 100 µM (inactive),> 100,> 100 µM (inactive),> 100 µM (inactive),> 100 µM (inactive),> 100 µM (inactive),> 100 µM (inactive),> 100 µM (inactive),> 100 µM (inactive),> 100 µM (inactive),> 100 µM (inactive),> 100 µM (inactive),> 100 µM (inactive),
CCCCN(CCCC)C(=O)C(=O)C(C(=O)c1ccc(OC)cc1)c1ccc(OC)cc1 (stereo not given),> 100 µM (inactive),56.4 µM (inactive),> 100 µM (inactive),> 100 µM (inactive),> 100 µM (inactive),> 100,> 100 µM (inactive),> 100 µM (inactive),> 100 µM (inactive),,> 100 µM (inactive),> 100 µM (inactive),> 100 µM (inactive),> 100 µM (inactive),> 100 µM (inactive),> 100 µM (inactive),> 100 µM (inactive),> 100 µM (inactive)
Cn1cc2ccccc2c1-c1nc(F)nc(Nc2ccc(N)cc2)n1,17.3 µM (inactive),,23.1 µM (inactive),> 10 µM (inactive),15.8 µM (inactive),4.97,23.3 µM (inactive),13.5 µM (inactive),15.8 µM (inactive),13.3 µM (inactive),21 µM (inactive),16.6 µM (inactive),21.5 µM (inactive),14.4 µM (inactive),29.3 µM (inactive),18.1 µM (inactive),15.5 µM (inactive),22.3 µM (inactive)
NC(=O)c1ncn(Cc2ccccc2)c1CNC(N)=S,,> 100 µM (inactive),> 100 µM (inactive),> 100 µM (inactive),> 100 µM (inactive),> 100,> 100 µM (inactive),> 100 µM (inactive),> 100 µM (inactive),> 100 µM (inactive),> 100 µM (inactive),,> 100 µM (inactive),,> 100 µM (inactive),> 100 µM (inactive),,> 100 µM (inactive)
COc1cccc2c1C(=O)c1c(O)c3c(c(O)c1C2=O)C[C@@](O)(C(=O)CO)CC3OC1CC(NCCCC(OC(C)=O)OC(C)=O)C(O)C(C)O1 (stereo not given in full),0.00269 µM (active),0.000861 µM (active),0.00151 µM (active),,0.00182 µM (active),0.00225,0.00277 µM (active),0.000895 µM (active),0.00229 µM (active),0.00322 µM (active),0.00196 µM (active),0.00165 µM (active),0.000711 µM (active),0.00209 µM (active),0.00246 µM (active),0.00333 µM (active),,0.00212 µM (active)
CC1=C(Cl)C=CP(=O)(Oc2ccccc2)C1 (stereo not given),71.6 µM (inactive),43.2 µM (inactive),> 100 µM (inactive),27.6 µM (inactive),45.7 µM (inactive),74.3,> 100 µM (inactive),32.6 µM (inactive),,,23.3 µM (inactive),> 100 µM (inactive),,44.5 µM (inactive),> 100 µM (inactive),38.8 µM (inactive),30.8 µM (inactive),> 10 µM (inactive)
C/C(=N\NC(=O)C[N+](C)(C)C)c1sc(-c2cccnc2)nc1C,> 100 µM (inactive),> 100 µM (inactive),,> 100 µM (inactive),> 100 µM (inactive),,> 100 µM (inactive),> 100 µM (inactive),> 100 µM (inactive),> 100 µM (inactive),> 100 µM (inactive),> 100 µM (inactive),> 100 µM (inactive),> 100 µM (inactive),,> 100 µM (inactive),> 100 µM (inactive),> 100 µM (inactive)
Nc1ncnc2c(C3OC(CO)C(O)C3O)n[nH]c12 (stereo not given),,1.4 µM (inactive),0.582 µM (active),2.42 µM (inactive),1.12 µM (inactive),,0.0646 µM (active),0.0826 µM (active),0.46 µM (active),0.159 µM (active),,0.0509 µM (active),0.0895 µM (active),0.432 µM (active),0.211 µM (active),0.428 µM (active),0.0767 µM (active),0.045 µM (active)
CC1=C2N3C[C@@H](n4c(=O)n(C)c(=O)n43)C23CCC1n1c(=O)n(C)c(=O)n13,> 100 µM (inactive),> 100 µM (inactive),> 100 µM (inactive),48 µM (inactive),> 100 µM (inactive),24.7,> 100 µM (inactive),> 100 µM (inactive),> 100 µM (inactive),42.7 µM (inactive),> 100 µM (inactive),> 100 µM (inactive),> 100 µM (inactive),> 100 µM (inactive),> 100 µM (inactive),,,> 100 µM (inactive)
O=C1CCCC/C1=C\c1ccc(Cl)c(Cl)c1,,23.4 µM (inactive),18.2 µM (inactive),35.1 µM (inactive),23.3 µM (inactive),19.1,45.7 µM (inactive),20.1 µM (inactive),17.2 µM (inactive),,23.6 µM (inactive),57.7 µM (inactive),22.3 µM (inactive),,25.8 µM (inactive),34.4 µM (inactive),17.1 µM (inactive),19 µM (inactive)
